Earlier results on two compounds are cited in US7351710B2, “Preparation of amorphous form of indiplon” (Mai De Ltd., priority 2005, dated 2008).

For `CC(=O)N(C)c1cccc(-c2ccnc3c(C(=O)c4cccs4)cnn23)c1` [Indiplon, N-Methyl-N-[3-[3-[2-thienylcarbonyl]pyrazolo[1,5-a]pyrimidin-7-yl]phenyl]acetamide], the “solubility in water (in words)” value (water) is reported as “practically insoluble”.

Turning to `CC(=O)N(C)c1cccc(-c2ccnc3c(C(=O)c4cccs4)cnn23)c1` [crystalline indiplon, N-Methyl-N-[3-[3-[2-thienylcarbonyl]pyrazolo[1,5-a]pyrimidin-7-yl]phenyl]acetamide], under “in water, crystalline form”, the solubility – broadly, the dissolved amount per volume that the medium holds – is 20 to 30 µg/mL.
